This is an account of results in ChEMBL document CHEMBL1201862, “PubChem BioAssay data set” (2004).

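Values below derive from 48-hour exposures of cells grown in 96-well plates, with endpoints linearly interpolated between the two concentrations bracketing the appropriate inhibition level. The concentration for 50% growth inhibition is given as GI50.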 The source made the active and inactive calls. Rule as the data show it: active = GI50 up to about 1.1 µM and inactive = higher.

What all share (assay): NCI-60 cell line screen, 48 h
For assay [1], the system named is OVCAR-4.
For assay [2], the system named is 786-0.
Assay [3] has as its system M14.
Assay [4] relates to KM12.
Assay [5] has as its system ACHN.
Assay [6] relates to HL-60.
The test system of assay [7] is SK-MEL-2.
For assay [8], the system named is K562.
In assay [9] the test system is A498.
Assay [10] deals with NCI-H226.
Assay [11] has as its system MDA-MB-435.
Assay [12] relates to PC-3.
The test system of assay [13] is Malme-3M.
Assay [14] has as its system CAKI-1.
For assay [15], the system named is LOX IMVI.
For assay [16], the system named is OVCAR-3.
The test system of assay [17] is RPMI-8226.
Assay [18] has as its system NCI-H460.
In assay [19] the test system is HCT-15.
In assay [20] the test system is MOLT-4.

With `O=C(O)C[S+]([O-])c1ccc2c3c(cccc13)C(=O)c1ccccc1-2` (stereo not given), the GI50 in [1], in assay [2], in assay [3], in assay [4], in assay [5] and in assay [6] was > 100 µM (inactive) in each case. In addition, the GI50 in assay [7], in assay [8], in assay [9], in assay [10], in [11] and in [12] was > 100 µM (inactive) each time. In addition, the GI50 in [13], in assay [14], in assay [15], in assay [16], in [17] and in [18] was > 100 µM (inactive) each time. Further, the GI50 in assay [19] was > 100 µM.

For the compound `O=C(O)/C=C\C(=O)Nc1ccc2c(c1)-c1ccccc1C2`, the GI50 in [1] is > 100 µM (inactive); in assay [2] it was 91.4 µM (inactive); in assay [3] it was > 100 µM (inactive); in [4] it was > 100 µM (inactive); in assay [5], > 100 µM (inactive); in assay [6] it was > 100 µM (inactive). Further, the GI50 is 38.5 µM (inactive) in assay [7]; 64.9 µM (inactive) in assay [8]; 94.6 µM (inactive) in assay [9]; 28.9 µM (inactive) in assay [10]; > 100 µM (inactive) in [11]; 69.2 µM (inactive) in [12]. The GI50 in assay [13] is 63.7 µM (inactive); in assay [14] it was > 100 µM (inactive); in [15], 77.3 µM (inactive); in assay [16], 30.8 µM (inactive); in [17], 42.5 µM (inactive); in assay [18] it was > 100 µM (inactive). In [19], this compound gave a GI50 of 44.7 µM.

On to `NC(=O)C(C(N)=O)=C(O)/C(O)=C/C(=O)c1ccccc1`, for which the GI50 in assay [1] was > 100 µM (inactive); in [2], > 100 µM (inactive); in assay [3], > 100 µM (inactive); in assay [4], > 100 µM (inactive); in assay [5], > 100 µM (inactive); in assay [6], 28.4 µM (inactive). Besides, the GI50 is > 100 µM (inactive) in assay [7]; 0.0652 µM (active) in [8]; > 100 µM (inactive) in assay [9]; > 100 µM (inactive) in assay [10]; > 100 µM (inactive) in [11]; > 100 µM (inactive) in assay [12]. For the same compound, the GI50 in [13] was 39.9 µM (inactive); in assay [14] it was > 100 µM (inactive); in assay [15], 89.9 µM (inactive); in assay [16], 51.4 µM (inactive); in assay [17] it was 12.6 µM (inactive); in assay [18], > 100 µM (inactive). Moreover, in [19], the GI50 is > 100 µM.

In the case of `COc1ccc(C2C(C(=O)c3ccccc3)=C(O)C(O)(CC(=O)c3ccccc3)N2c2ccc(OC)cc2)cc1` (stereo not given), the GI50 was 19.1 µM (inactive) in assay [1]; 16.8 µM (inactive) in assay [2]; 31.2 µM (inactive) in [3]; 11.2 µM (inactive) in assay [4]; 21 µM (inactive) in assay [5]; 5.78 µM (inactive) in [6]. Further, the GI50 in [7] is 16.1 µM (inactive); in assay [8] it was 16.6 µM (inactive); in assay [9] it was 44.6 µM (inactive); in assay [10], 16.1 µM (inactive); in [11] it was 18.6 µM (inactive); in assay [20], 12.5 µM (inactive). The GI50 is 11.6 µM (inactive) in [12]; 28 µM (inactive) in [13]; 24.5 µM (inactive) in [14]; 15.2 µM (inactive) in assay [15]; 7.67 µM (inactive) in assay [16]; 5.04 µM (inactive) in assay [17]. Further, the GI50 in assay [18] was 24.4 µM (inactive); in assay [19], 9.38 µM.

For `O=c1/c(=C/c2ccc(-c3ccc(Cl)cc3Cl)o2)sc2n1[C@@H](c1ccc(Cl)cc1)C=C(c1cc(F)c(Cl)cc1Cl)N=2`, the GI50 in assay [1] was 41.9 µM (inactive); in [2], 45.3 µM (inactive); in assay [3], > 100 µM (inactive); in [4], 87.5 µM (inactive); in assay [5], > 100 µM (inactive); in assay [6] it was < 0.01 µM (active). Also, the GI50 is 40.5 µM (inactive) in assay [7]; 38.8 µM (inactive) in assay [8]; 2.05 µM (inactive) in assay [9]; 22 µM (inactive) in [10]; 54.3 µM (inactive) in assay [11]; 22.4 µM (inactive) in assay [20]. The GI50 in [12] was > 100 µM (inactive); in assay [13], > 100 µM (inactive); in [14], > 100 µM (inactive); in [15], 57.9 µM (inactive); in assay [17], 31.1 µM (inactive); in assay [18], 60.3 µM (inactive). The GI50 in [19] was 35.6 µM.

For the compound `CC(C)C1=C2CCC3(C)C(CCC4C5C6OCC5(CCC6(C)C)CCC43C)C2(C)CC1` (stereo not given), the GI50 is 25.3 µM (inactive) in assay [1]; 17.7 µM (inactive) in assay [2]; 17.4 µM (inactive) in assay [3]; 16.9 µM (inactive) in [4]; 20 µM (inactive) in assay [5]; 8.81 µM (inactive) in assay [6]. The GI50 was 29.6 µM (inactive) in assay [7]; 20.4 µM (inactive) in assay [9]; 33.7 µM (inactive) in assay [10]; 17.4 µM (inactive) in assay [11]; 16.3 µM (inactive) in assay [20]; > 10 µM (inactive) in assay [12]. The GI50 in assay [13] is 20.8 µM (inactive); in assay [14], 20 µM (inactive); in assay [15], 14.4 µM (inactive); in assay [16], 21.3 µM (inactive); in assay [17], 13.6 µM (inactive); in [18] it was 14 µM (inactive). Besides, in assay [19], the GI50 was 19.1 µM.

As for `CCCCCCCCCCCC(=O)N(CCCCCCCCCCC(=O)O)CC(O)C(O)C(OC1OC(CO)C(O)C(O)C1O)C(O)CO` (stereo not given), the GI50 in assay [1], in [2], in assay [3], in assay [4], in assay [5] and in assay [6] was > 100 µM (inactive) throughout. The GI50 in assay [7] is > 100 µM (inactive); in assay [8] it was 95.1 µM (inactive); in [9], > 100 µM (inactive); in assay [10], > 100 µM (inactive); in assay [11] it was > 100 µM (inactive); in assay [20], > 100 µM (inactive). For the same compound, the GI50 was > 100 µM (inactive) in assay [12]; > 100 µM (inactive) in assay [13]; > 100 µM (inactive) in [14]; > 100 µM (inactive) in assay [15]; > 100 µM (inactive) in [16]; 50.7 µM (inactive) in assay [17]. The GI50 is > 100 µM (inactive) in assay [18] and > 100 µM in assay [19].
